Measurements: patent US9539260B2, “Dihydro-benzo-oxazine and dihydro-pyrido-oxazine derivatives” (Novartis AG, priority 2012, dated 2017)

How the values were obtained:
PI3K alpha = PI3K alpha (Homo sapiens (Human), UniProt P42336); experiment: Enzymatic PI3K alpha isoform inhibition (lipid kinase activity, Kinase-Glo luminescence); assay type: biochemical; details: Enzymatic assay
Outline: (§1)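 IC50s derive from 4-parameter logistic fits of % inhibition across 8 concentrations (usually 10 to 0.003 μM). Lipid kinase reaction: PI3K (10 nM) plus phosphatidylinositol (5 μg/mL) started with 2 μM ATP, stopped near 50% ATP depletion; leftover ATP quantified by Kinase-Glo luminescence.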

PI3K delta = PI3K delta (Homo sapiens (Human), UniProt O00329); experiment: Enzymatic PI3K delta isoform inhibition (lipid kinase activity, Kinase-Glo luminescence); assay type: biochemical; details: Enzymatic assay
Outline: as §1

PI3K alpha, sequence (P42336 other isoform, or with tags, fused parts or gaps): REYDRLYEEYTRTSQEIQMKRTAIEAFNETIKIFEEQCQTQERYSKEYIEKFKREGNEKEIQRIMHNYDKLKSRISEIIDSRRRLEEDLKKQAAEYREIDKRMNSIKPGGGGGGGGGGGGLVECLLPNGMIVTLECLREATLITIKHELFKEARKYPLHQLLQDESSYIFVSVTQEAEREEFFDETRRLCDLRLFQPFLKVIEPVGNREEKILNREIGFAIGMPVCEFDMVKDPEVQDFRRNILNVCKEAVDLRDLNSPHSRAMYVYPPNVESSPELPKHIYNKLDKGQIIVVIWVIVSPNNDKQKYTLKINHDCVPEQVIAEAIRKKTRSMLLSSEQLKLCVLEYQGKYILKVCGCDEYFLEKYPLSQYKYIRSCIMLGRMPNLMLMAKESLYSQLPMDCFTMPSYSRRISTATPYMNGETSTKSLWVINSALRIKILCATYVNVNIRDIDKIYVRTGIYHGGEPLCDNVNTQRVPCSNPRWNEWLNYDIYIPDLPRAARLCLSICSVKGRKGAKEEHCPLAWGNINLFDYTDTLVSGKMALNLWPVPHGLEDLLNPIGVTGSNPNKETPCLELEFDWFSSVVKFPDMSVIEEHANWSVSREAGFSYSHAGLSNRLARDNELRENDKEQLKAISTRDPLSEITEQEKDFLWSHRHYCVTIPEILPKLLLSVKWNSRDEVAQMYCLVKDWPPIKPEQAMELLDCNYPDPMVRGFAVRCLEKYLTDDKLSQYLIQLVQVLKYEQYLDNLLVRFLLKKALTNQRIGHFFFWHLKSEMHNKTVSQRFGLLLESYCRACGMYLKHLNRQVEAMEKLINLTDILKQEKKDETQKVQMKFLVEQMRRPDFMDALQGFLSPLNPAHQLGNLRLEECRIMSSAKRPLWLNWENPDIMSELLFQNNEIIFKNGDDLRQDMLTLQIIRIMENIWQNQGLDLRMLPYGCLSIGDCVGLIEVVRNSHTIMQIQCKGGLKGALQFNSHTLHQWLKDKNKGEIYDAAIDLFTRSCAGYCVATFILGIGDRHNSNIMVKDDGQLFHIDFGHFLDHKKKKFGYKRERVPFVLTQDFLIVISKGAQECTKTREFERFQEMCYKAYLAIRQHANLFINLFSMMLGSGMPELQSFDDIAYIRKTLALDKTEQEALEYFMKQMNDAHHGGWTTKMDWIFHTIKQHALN
PI3K delta, sequence (O00329 other isoform, or with tags, fused parts or gaps linker GGGGGG): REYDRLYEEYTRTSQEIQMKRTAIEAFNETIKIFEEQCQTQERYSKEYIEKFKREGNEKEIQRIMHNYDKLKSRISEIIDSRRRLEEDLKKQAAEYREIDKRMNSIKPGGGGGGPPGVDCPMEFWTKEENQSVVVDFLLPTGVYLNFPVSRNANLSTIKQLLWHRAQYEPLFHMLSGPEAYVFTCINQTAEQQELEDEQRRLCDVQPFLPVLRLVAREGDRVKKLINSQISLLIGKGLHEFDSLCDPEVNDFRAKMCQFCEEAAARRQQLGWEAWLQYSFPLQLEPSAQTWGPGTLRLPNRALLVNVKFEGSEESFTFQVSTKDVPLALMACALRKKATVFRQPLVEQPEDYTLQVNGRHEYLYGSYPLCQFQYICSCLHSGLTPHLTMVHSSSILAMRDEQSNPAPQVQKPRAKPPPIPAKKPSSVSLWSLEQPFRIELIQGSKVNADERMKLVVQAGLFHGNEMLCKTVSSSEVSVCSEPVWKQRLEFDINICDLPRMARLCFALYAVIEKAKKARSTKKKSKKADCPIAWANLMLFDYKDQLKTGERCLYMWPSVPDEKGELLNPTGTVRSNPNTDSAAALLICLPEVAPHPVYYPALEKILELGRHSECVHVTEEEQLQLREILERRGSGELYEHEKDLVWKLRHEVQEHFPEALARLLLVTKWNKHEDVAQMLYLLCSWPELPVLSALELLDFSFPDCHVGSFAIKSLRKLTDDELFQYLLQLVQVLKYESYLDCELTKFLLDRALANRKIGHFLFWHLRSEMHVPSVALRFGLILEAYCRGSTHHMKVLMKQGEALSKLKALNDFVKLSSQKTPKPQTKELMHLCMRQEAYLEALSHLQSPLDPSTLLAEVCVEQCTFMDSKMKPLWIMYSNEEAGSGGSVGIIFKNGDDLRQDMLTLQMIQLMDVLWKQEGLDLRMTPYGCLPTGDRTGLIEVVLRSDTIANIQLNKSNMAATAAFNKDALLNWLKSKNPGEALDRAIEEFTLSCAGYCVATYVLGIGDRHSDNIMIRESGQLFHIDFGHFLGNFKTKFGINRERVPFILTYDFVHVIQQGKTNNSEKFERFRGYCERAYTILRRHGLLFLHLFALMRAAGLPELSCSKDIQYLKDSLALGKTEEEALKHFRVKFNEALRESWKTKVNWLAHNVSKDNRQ

SMILES	IC50 (PI3K alpha) [nM]	IC50 (PI3K delta) [nM]
COc1cc(N2CCOc3ccc(O[C@H]4CCN(C(=O)CCS(C)(=O)=O)C4)cc32)cnc1OC [Example B45, 1-{(S)-3-[4-(5,6-Dimethoxy-pyridin-3-yl)-3,4-dihydro-2H-benzo[1,4]oxazin-6-yloxy]-pyrrolidin-1-yl}-3-methanesulfonyl-propan-1-one]	574	74.5
COc1ncc(N2CCOc3ccc(O[C@H]4CCN(C(=O)C5CCS(=O)(=O)CC5)C4)cc32)cc1C(F)F [Example B119, {(S)-3-[4-(5-Difluoromethyl-6-methoxy-pyridin-3-yl)-3,4-dihydro-2H-benzo[1,4]oxazin-6-yloxy]-pyrrolidin-1-yl}-(1,1-dioxo-hexahydro-6-thiopyran-4-yl)-methanone]	124	6
COc1ncc(N2CCOc3ccc(O[C@H]4CCN(C(=O)C5CCS(=O)(=O)C5)C4)cc32)cc1Cl (stereo partly drawn) [Example B105, {(S)-3-[4-(5-Chloro-6-methoxy-pyridin-3-yl)-3,4-dihydro-2H-benzo[1,4]oxazin-6-yloxy]-pyrrolidin-1-yl}-(1,1-dioxo-tetrahydro-1lambda*6*-thiophen-3-yl)-methanone]	762	20
Cc1cc(N2CCOc3ccc(O[C@H]4CCN(C(=O)C5CCS(=O)(=O)CC5)C4)cc32)cnc1Cl [Example B60, {(S)-3-[4-(6-Chloro-5-methyl-pyridin-3-yl)-3,4-dihydro-2H-benzo[1,4]oxazin-6-yloxy]-pyrrolidin-1-yl}-(1,1-dioxo-hexahydro-1lambda*6*-thiopyran-4-yl)-methanone]	463	11
CS(=O)(=O)c1ncc(N2CCOc3ccc(O[C@H]4CCN(C(=O)[C@H]5CCOC5)C4)cc32)cc1C(F)F [Example B76, {(S)-3-[4-(5-Difluoromethyl-6-methanesulfonyl-pyridin-3-yl)-3,4-dihydro-2H-benzo[1,4]oxazin-6-yloxy]-pyrrolidin-1-yl}-(S)-tetrahydro-furan-3-yl-methanone]	399	61
Cc1cc(N2CCOc3ccc(O[C@H]4CCN(C(=O)C5CCCOC5)C4)cc32)cnc1S(C)(=O)=O (stereo partly drawn) [Example B42, {(S)-3-[4-(6-Methanesulfonyl-5-methyl-pyridin-3-yl)-3,4-dihydro-2H-benzo[1,4]oxazin-6-yloxy]-pyrrolidin-1-yl}-(tetrahydro-pyran-3-yl)-methanone]	502	33
CN(C)S(=O)(=O)c1cncc(N2CCOc3ccc(O[C@H]4CCN(C(=O)C5CCOCC5)C4)cc32)c1 [Example A2, 5-{6-[(S)-1-(Tetrahydro-pyran-4-carbonyl)-pyrrolidin-3-yloxy]-2,3-dihydro-benzo[1,4]oxazin-4-yl}-pyridine-3-sulfonic acid dimethylamide]	47	6
COc1ncc(N2CCOc3ccc(O[C@H]4CCN(C(=O)[C@H]5CC[C@H](O)CC5)C4)cc32)cc1C#N [R, 5-{6-[(S)-1-(4-Hydroxy-cyclohexanecarbonyl)-pyrrolidin-3-yloxy]-2,3-dihydro-benzo[1,4]oxazin-4-yl}-2-methoxy-nicotinonitrile]	602	11
COc1ncc(N2CCOc3ccc(O[C@H]4CCN(C(=O)c5cc[nH]c(=O)c5)C4)cc32)cc1C [Example B91, 4-{(S)-3-[4-(6-Methoxy-5-methyl-pyridin-3-yl)-3,4-dihydro-2H-benzo[1,4]oxazin-6-yloxy]-pyrrolidine-1-carbonyl}-1H-pyridin-2-one]	353	12
COc1ncc(N2CCOc3ccc(O[C@H]4CCN(C(=O)C5CCS(=O)(=O)C5)C4)cc32)cc1C (single isomer, unassigned) [Example B27, (1,1-Dioxo-tetrahydro-1lambda*6*-thiophen-3-yl)-{(S)-3-[4-(6-methoxy-5-methyl-pyridin-3-yl)-3,4-dihydro-2H-benzo[1,4]oxazin-6-yloxy]-pyrrolidin-1-yl}-methanone]	2510	55
COc1ncc(N2C[C@H](C)Oc3ccc(O[C@H]4CCN(C(=O)C5CCOCC5)C4)cc32)cc1C#N (single isomer, unassigned) [Example O2]	5690	49
Cc1cc(N2CCOc3ccc(O[C@H]4CCN(C(=O)C5CCOC5)C4)cc32)cnc1S(C)(=O)=O (stereo partly drawn) [Example B53, {(S)-3-[4-(6-Methanesulfonyl-5-methyl-pyridin-3-yl)-3,4-dihydro-2H-benzo[1,4]oxazin-6-yloxy]-pyrrolidin-1-yl}-(tetrahydro-furan-3-yl)-methanone]	343	4.5
COc1cc(N2CCOc3ccc(O[C@H]4CCN(C(=O)C5CCOCC5)C4)cc32)ccn1 [Example A22, {(S)-3-[4-(2-Methoxy-pyridin-4-yl)-3,4-dihydro-2H-benzo[1,4]oxazin-6-yloxy]-pyrrolidin-1-yl}-(tetrahydro-pyran-4-yl)-methanone]	757	21
Cc1cc(N2CCOc3ccc(O[C@H]4CCN(C(=O)c5cnco5)C4)cc32)cnc1S(C)(=O)=O [Example B25, {(S)-3-[4-(6-Methanesulfonyl-5-methyl-pyridin-3-yl)-3,4-dihydro-2H-benzo[1,4]oxazin-6-yloxy]-pyrrolidin-1-yl}-oxazol-5-yl-methanone]	665	40
COc1ncc(N2CCOc3ccc(O[C@H]4CCN(C(=O)C5CCS(=O)(=O)CC5)C4)c(C)c32)cc1C(F)F [X, {(S)-3-[4-(5-Difluoromethyl-6-methoxy-pyridin-3-yl)-5-methyl-3,4-dihydro-2H-benzo[1,4]oxazin-6-yloxy]-pyrrolidin-1-yl}-(1,1-dioxo-hexahydro-1lambda*6*-thiopyran-4-yl)-methanone]	3580	61
CCOc1ncc(N2CCOc3ccc(O[C@H]4CCN(C(=O)C5CCOCC5)C4)cc32)cc1C [Example B2, {(S)-3-[4-(6-Ethoxy-5-methyl-pyridin-3-yl)-3,4dihydro-2H-benzo[1,4]oxazin-6-yloxy]-pyrrolidin-1-yl}-(tetrahydro-pyran-4-yl)-methanone]	1640	26
COc1ncc(N2CCOc3ccc(O[C@H]4CCN(C(=O)c5cncnc5)C4)cc32)cc1F [Example B104, {(S)-3-[4-(5-Fluoro-6-methoxy-pyridin-3-yl)-3,4-dihydro-2H-benzo[1,4]oxazin-6-yloxy]-pyrrolidin-1-yl}-pyrimidin-5-yl-methanone]	1370	162
COc1cncc(N2CCOc3ccc(O[C@H]4CCN(C(=O)C5CCOCC5)C4)cc32)c1 [Example A33, {(S)-3-[4-(5-Methoxy-pyridin-3-yl)-3,4-dihydro-2H-benzo[1,4]oxazin-6-yloxy]-pyrrolidin-1-yl}-(tetrahydro-pyran-4-yl)-methanone]	1700	85

Second part, the compound after the results:

IC50 (PI3K alpha) [nM]	IC50 (PI3K delta) [nM]	SMILES
593	7	Cc1cc(N2CCOc3cnc(O[C@H]4CCN(C(=O)C5CCOCC5)C4)cc32)cnc1OC(F)F [Example E9, {(S)-3-[1-(6-Difluoromethoxy-5-methyl-pyridin-3-yl)-2,3-dihydro-1H-pyrido[3,4-b][1,4]oxazin-7-yloxy]pyrrolidin-1-yl}-(tetrahydro-pyran-4-yl)-methanone]
727	18	COc1cc(N2CCOc3ccc(O[C@H]4CCN(C(=O)C5CCS(=O)(=O)C5)C4)cc32)cnc1OC (single isomer, unassigned) [Example H10]
353	23	COc1ncc(N2CCOc3ccc(O[C@H]4CCN(C(=O)CS(C)(=O)=O)C4)cc32)cc1C#N [Example C11, 5-{6-[(S)-1-(2-Methanesulfonyl-acetyl)-pyrrolidin-3-yloxy]-2,3-dihydro-benzo[1,4]oxazin-4-yl}-2-methoxy-nicotinonitrile]
4420	219	COc1ccc(N2CCOc3ccc(O[C@H]4CCN(C(=O)CN(C)C)C4)cc32)cn1 [Example D3, 2-Dimethylamino-1-{(S)-3-[4-(6-methoxy-pyridin-3-yl)-3,4-dihydro-2H-benzo[1,4]oxazin-6-yloxy]-pyrrolidin-1-yl}-ethanone]
308	5	COc1ncc(N2CCOc3ccc(O[C@H]4CCN(C(=O)C5CCS(=O)(=O)CC5)C4)c(F)c32)cc1C(F)F [Example I2]
3000	28	CCC(=O)N1CC[C@H](Oc2ccc3c(c2)N(c2ccc(OC)nc2)CCO3)C1 [Example C4, 1-{(S)-3-[4-(6-Methoxy-pyridin-3-yl)-3,4-dihydro-2H-benzo[1,4]oxazin-6-yloxy]-pyrrolidin-1-yl}-propan-1-one]
185	6	COc1ncc(N2CCOc3ccc(O[C@H]4CCN(C(=O)c5ccno5)C4)cc32)cc1C#N [Example C9, 5-{6-[(S)-1-(Isoxazole-5-carbonyl)-pyrrolidin-3-yloxy]-2,3-dihydro-benzo[1,4]oxazin-4-yl}-2-methoxy-nicotinonitrile]
358	8	COc1ncc(N2CCOc3ccc(O[C@H]4CCN(C(=O)c5ccncc5)C4)cc32)cc1C#N [Example C17, 2-Methoxy-5-{6-[(S)-1-(pyridine-4-carbonyl)-pyrrolidin-3-yloxy]-2,3-dihydro-benzo[1,4]oxazin-4-yl}-nicotinonitrile]
658	32	COc1ncc(N2CCOc3ccc(O[C@H]4CCN(C(=O)C5CCC(=O)N5)C4)cc32)cc1C#N (stereo partly drawn) [Example C23, 2-Methoxy-5-{6-[(S)-1-(5-oxo-pyrrolidine-2-carbonyl)-pyrrolidin-3-yloxy]-2,3-dihydro-benzo[1,4]oxazin-4-yl}-nicotinonitrile]
78	76	COCC(=O)N1CC[C@H](Oc2cc3c(cn2)OCCN3c2cnc(S(C)(=O)=O)c(C(F)F)c2)C1 [Example F11, 1-{(S)-3-[1-(5-Difluoromethyl-6-methanesulfonyl-pyridin-3-yl)-2,3-dihydro-1H-pyrido[3,4-b][1,4]oxazin-7-yloxy]-pyrrolidin-1-yl}-2-methoxy-ethanone]
